Measured values published in patent US20250000847A1, “TREATMENT OF NEURODEGENERATIVE DISEASES WITH HDAC INHIBITORS” (CASE WESTERN RESERVE UNIVERSITY, priority 2021, published 2025).

Key:
[1] = tested on: retinal ganglion cells (RGCs); test: Optic nerve crush model of neurodegeneration; type: in vivo, mouse; settings: 10 mg/kg daily i.p. for 14 days after optic nerve crush
Description: The optic nerve of adult mice was surgically accessed and crushed. […] 14 days after optic nerve crush surgery, retina were harvested and stained for the RGC marker BRN3A, and the pan neuronal maker BIII-tubulin.

[2] = tested on: MHC Class I (H-2Kb) bound to OVA257-264 on reactive astrocytes; test: OVA257-264 peptide antigen cross presentation assay; type: cell-based, mouse
Procedure: To test whether HDAC inhibitors block the ability of reactive astrocytes to cross present exogenous antigen, cells were plated down in 96-well plates at a density of about 500 cells/mm^2. Cells were then treated with HDAC inhibitors for 1 hr prior to the addition of reactive astrocyte driving factors as the concentrations stated above. Cells were incubated for 24 hrs, after which, media was washed out and replaced with media containing the peptide fragment ovalbumin 257-264 (OVA257-264). Cells were then incubated overnight, and then stained for 2 hrs at 37° C. with APC-conjugated antibody against MHC Class I (H-2Kb) bound to OVA257-264, then visualized. The percent of H-2Kb positive cells as a percent of total live cells was determined (FIG. 3).
After 24 hours of treatment, these cells were cultured in the presence of the OVA257264 Peptide (GenScript RP10611 or Sigma S7951). After 12 hours, the cells were live-stained for two hours using a conjugated antibody targeted against an OVA257-264 peptide antigen. The cells were then fixed and imaged using the PerkinElmer Operetta CLS High-Content Analysis System.

[3] = tested on: NF-κB (RelA/P65) transcriptional activity; test: NF-κB Jurkat reporter assay; type: cell-based
Description: NF-κB luciferase reporter Jurkat T-cells were used to measure NF-κB transcriptional activity in response to reactive astrocyte driving cytokines with or HDAC inhibitors and other validated hits from the primary screen. NFκB luciferase reporter Jurkat T-Cells (BPS Biosciences 60651) were purchased from BPS Bioscience. Within this cell line, the firefly luciferase gene is controlled by four copies of an NF-κB response element located upstream of the TATA promoter. Following activation by an external stimulant, endogenous NF-κB transcription factors bound to the DNA response elements to induce transcription of the luciferase gene.

[4] = tested on: genes associated with damaging and beneficial reactive astrocytes; test: Bulk RNAseq of reactive astrocytes; type: cell-based, mouse
Description: Total RNA was extracted from resting and reactive astrocytes using the same procedure as described for qPCR and sent to Novogene for mRNA Sequencing.
For gene expression analysis, reads were mapped to the mm10 genome using kallisto 0.46.1 (Bray et al., Nat Biotechnol 34, 525-527, doi:10.1038/nbt.3519 (2016)). Transcripts were summarized to the gene level with tximport (Soneson et al., F1OORes 4, 1521, doi:10.12688/fl000research.7563.2 (2015). Normalized expression and differentiation gene expression was then generated using DESEQ2 (Love et al., Genome Biol 15, 550, doi:10.1186/s13059-014-0550-8 (2014)).

[5] = tested on: Gbp2 and Psmb8; test: Gene expression in cultured human astrocytes (qPCR); type: cell-based
Procedure: Human induced pluripotent stem cells (iPSCs) were cultured to differentiate into astrocytes as described by Perriot et al. (2018). In short, iPSC colonies were placed in neural induction media for 10 days until neural rosettes could be picked, dissociated, and plated in a glial expansion medium. These cells were allowed to proliferate and become a homogenous population of glial progenitor cells (GPCs) over eight passages on poly-L-ornithine and laminin-coated plates. These GPCs were then passaged onto a Matrigel-coated plate to culture in an astrocyte induction media for two weeks, which was followed by culturing for another four weeks in an astrocyte maturation medium.
Cells were lysed in TRIzol and total RNA was extracted with phenol-chloroform followed by spin columns from the RNEasy Mini Kit (74104, QIAGEN). RNA quality and quantity was determined using a NanoDrop spectrophotometer. The RNA was then reverse transcribed using the iScript cDNA synthesis kit (1708891, Bio-Rad) according to the manufacturer's instructions. […]

[6] = tested on: very long chain fatty acids (VLCFA); test: Very long chain fatty acids produced by reactive astrocytes; type: cell-based; settings: compared to cells treated with DMSO
[7] = Pharmacokinetics, brain tissue; type: in vivo, mouse
Procedure: Mice were then perfused with saline to remove blood from the brain. Brain tissue was then collected and snap frozen. Brain tissues were thawed at room temperature and homogenized in PBS. Calibration standards and study samples were extracted with 3× volume of acetonitrile containing 0.1% formic acid+200 ng/ml internal standard solution. Samples were then vortexed each for 1 minute and then transferred to an Eppendorf R5417R and centrifuged at 14000 rpm for 7 minutes. Following extraction of tissue homogenate calibrators and study samples were transferred directly to an autosampler microtiter plate for analysis. Samples were analyzed by LC-MS-MS in the positive ion electrospray ionization mode.

[8] = tested on: RelA/P65; test: Nuclear RelA/P65 in reactive astrocytes; type: cell-based, mouse
Procedure: For immunocytochemistry, cells were fixed with ice-cold 4% PFA for 15 minutes at room temperature, washed three times with PBS, blocked and permeabilized with 10% donkey serum and 0.1% Triton X-100 in PBS for 1 hr, and then stained with primary overnight followed by three washes with PBS, and then 1 hr incubation with Alexaflour secondary antibodies and DAPI. Stained cells were imaged using the PerkinElmer Operetta CLS High-Content Analysis System and analyzed using automated scripts in PerkinElmer Columbus Image Analysis software. Primary antibodies used were GBP2 (ProteinTech, 11854-1-AP), vimentin (BioLegend, 919101), RelA/P65 (Cell Signaling Tech, 6956), MBP (Abeam, AB7349).

[9] = tested on: other HDAC; settings: at up to 15 μM; cited from earlier work

concentration in brain tissue ([7]; chronic treatment, 10 mg/kg i.p. daily): equal to the IC50 | brain permeance ([7]; mice, 10 mg/kg i.p.): brain permeant
Structure (SMILES): Nc1cc(F)ccc1NC(=O)/C=C/c1cnn(C/C=C/c2ccccc2)c1 [RGFP966]
protection of retinal ganglion cells (RGCs) from neurodegeneration [1]: protects | ability of reactive astrocytes to cross present antigen on MHC Class I ([2]; FIG. 3): decrease | inhibition of antigen cross-presentation by MHC Class I ([2]; at either 2.5 or 5.0 μM): completely inhibited | RelA/P65 driven transcription (transcriptional activity) [3]: decreases | expression of genes associated with beneficial reactive astrocytes (BRA) [4]: increasing expression | expression of genes associated with damaging reactive astrocytes (DRA) [4]: decreased expression | expression of genes associated with DRAs, Gbp2 and Psmb8 [5]: decreased expression | levels of toxic very long chain fatty acids (VLCFA) [6]: decreased levels | nuclear RelA/P65 [8]: decreases | inhibition of other HDAC isozymes [9]: no inhibition
